In US10526287B2, “LSD1 inhibitors and uses thereof” (Constellation Pharmaceuticals, Inc., priority 2015, dated 2020):
pIC50: −log10 of the molar value. Counter-ions that a name gives are not always drawn.

The molecules below were run against LSD1 (Homo sapiens, UniProt O60341) (assay: Biochemical assay for LSD1 activity (LSD1 demethylase TR-FRET)). Conditions: not given.
For `CC(=Cc1ccc(C#N)cc1)C1CC1N` (stereo not shown) [Compound 129, 4-(2-(2-aminocyclopropyl)prop-1-en-1-yl)benzonitrile Hydrochloride], the pIC50 was < 5.00.

Same assay, conditions: Table 5; biotinylated H3K4me1 peptide, 50 minutes at room temperature, TR-FRET; read-out: LSD1_Pep_TR-FRET_1.0 (IC50 T50)
`O=C(O)c1ccc(CN2CCC(CNC3CC3/C=C/c3ccccc3)CC2)cc1` (stereo not shown) [Compound 101, (E)-4-((4-(((2-styrylcyclopropypamino)methyl)piperidin-1-yl)methyl)benzoic Acid Dihydrochloride] was tested, and the pIC50 was 6.00 to 7.00. Molecule `O=C(O)CCN1CCC(CNC2CC2/C=C/c2ccccc2)CC1` (stereo not shown) [Compound 105, (E)-3-(4-(((2-styrylcyclopropyl)amino)methyl)piperidin-1-yl)propanoic acid] has a pIC50 of 6.00 to 7.00. With `C(=C\C1CC1NCC1CCN(Cc2ccccc2)CC1)/c1ccccc1` (stereo not shown) [Compound 106] the pIC50 was 6.00 to 7.00. `O=C(O)CN1CCC(CNC2CC2/C=C/c2ccccc2)CC1` (stereo not shown) [Compound 111, (E)-3-(4-(((2-styrylcyclopropyl)amino)methyl)piperidin-1-yl)acetic acid] was tested, and the pIC50 was > 7.00. `CC1(N)CC1/C=C/c1ccccc1` (stereo not shown) [Compound 112, 1-methyl-2-((E)-styryl)cyclopropanamine] gave a pIC50 of 6.00 to 7.00. For `CCS(=O)(=O)CCN1CCC(CNC2CC2/C=C/c2ccccc2)CC1` (stereo not shown) [Compound 113], the pIC50 was > 7.00.

Same assay, conditions: Table 6; biotinylated H3K4me1 peptide, 50 minutes at room temperature, TR-FRET; read-out: LSD1_Pep_TR-FRET_1.0 (IC50 T50)
In the case of `CCC1(NCC2CCNCC2)CC1/C(C)=C/c1ccccc1` (stereo not shown) [Compound 173, 1-ethyl-2-((E)-1-phenylprop-1-en-2-yl)-N-(piperidin-4-ylmethyl)cyclopropanamine Dihydrochloride], the pIC50 was > 7.00. `CCC1(NC2CCNCC2)CC1/C(C)=C/c1ccccc1` (stereo not shown) [Compound 174, bis(trifluoroacetic Acid) Salt] was tested, and the pIC50 was > 7.00. For `Fc1ccccc1/C=C/C1CC1NCC1CCNCC1` (stereo not shown) [Compound 186, (E)-2-(2-fluorostyryl)-N-(piperidin-4-ylmethyl)cyclopropan-1-amine Dihydrochloride], the pIC50 was > 7.00. `COc1ccc(/C=C(\C)[C@@H]2C[C@H]2N)cc1` [compound 130, 2,2,2-trifluoroacetate] was tested, and the pIC50 was 5.00 to 6.00. Molecule `C/C(=C\c1ccccc1)[C@@H]1C[C@H]1NC1CCN(Cc2ccc(C(=O)O)cc2)CC1` [compound 192] has a pIC50 of 6.00 to 7.00.

Same assay, conditions: Table 7; biotinylated H3K4me1 peptide, 50 minutes at room temperature, TR-FRET; read-out: LSD1_Pep_TR-FRET_1.0 (IC50 T50)
In the case of `CC/C(=C\c1ccccc1)[C@@H]1C[C@H]1NC1CC2(C1)CN(Cc1ccc(-c3nnn[nH]3)cc1)C2` (single isomer, unassigned) [Compound 252], the pIC50 was > 7.00. `CC/C(=C\c1ccccc1)[C@@H]1C[C@H]1NC1CC2(C1)CN(Cc1ccc(C(=O)O)cc1C)C2` (single isomer, unassigned) [Compound 254] was tested, and the pIC50 was > 7.00. `CC/C(=C\c1ccccc1)[C@@H]1C[C@H]1NC1CC2(C1)CN(Cc1ccc(C(=O)O)c(C)c1)C2` (single isomer, unassigned) [Compound 255] was tested, and the pIC50 was > 7.00. `CC/C(=C\c1ccccc1)[C@@H]1C[C@H]1NC1CC2(C1)CN(Cc1cnc(C(=O)O)cn1)C2` (single isomer, unassigned) [Compound 256] was tested, and the pIC50 was > 7.00. `CC/C(=C\c1ccccc1)[C@@H]1C[C@H]1N[C@H]1CC[C@H](NCc2ccc(C(=O)O)nc2)CC1` (single isomer, unassigned) [Compound 260, 5-((((trans)-4-(((1R,2S or 1S,2R)-2-((E)-1-phenylbut-1-en-2-yl)cyclopropyl)amino)cyclohexyl)amino)methyl)picolinic acid bis trifluoroacetate] was tested, and the pIC50 was > 7.00. In the case of `CC/C(=C\c1ccccc1)[C@@H]1C[C@H]1NC1CC2(C1)CN(CCC(=O)O)C2` (single isomer, unassigned) [Compound 266, 3-(6-(((1R,2S or 1S,2R)-2-((E)-1-phenylbut-1-en-2-yl)cyclopropyl)amino)-2-azaspiro[3.3]heptan-2-yl)propanoic Acid (Single Stereoisomer)], the pIC50 was > 7.00. `CC/C(=C\c1ccccc1)[C@@H]1C[C@H]1NC1CC2(C1)CN(CC(N)=O)C2` (single isomer, unassigned) [Compound 268, 2-(6-(((1R,2S or 1S,2R)-2-(E)-1-phenylbut-1-en-2-yl)cyclopropyl)amino)-2-azaspiro[3.3]heptan-2-yl)acetamide Bis Trifluoroacetate (Single Stereoisomer)] was tested, and the pIC50 was > 7.00.
